The source of these data is patent US20110280827A1, “METHODS AND COMPOSITIONS FOR TREATING HEMATOLOGICAL MALIGNANCIES” (priority 2009, published 2011).

For data set [1], the system named is Raji B-cell lymphoma cells. Put plainly: Disseminated Raji lymphoma model in SCID mice (survival, Kaplan-Meier). Type of data set: in vivo.
Method: Four groups of 4- to 6-week-old SCID mice (8 animals each) were injected intravenously with 2×10^6 Raji B-cell lymphoma cells. The Raji cell line is a well-characterized human B-cell lymphoblastic line (CXCR4^+, CD19^+, CD20^+, CD22^+, CD52^+) derived from a patient with Burkitt's lymphoma (available from the American Tissue and Cell Collection, Manassas, Va.). Starting on day 7 after the injection, three of the four groups were administered subcutaneous AMD3465 daily (Monday-Friday regimen) at 0.1 mg/kg, 0.5 mg/kg or 1.0 mg/kg body weight.
Data set [2] concerns B104 B-cell lymphoma cells. Put plainly: Disseminated B104 lymphoma model in SCID mice (survival, Kaplan-Meier). The class given is in vivo.
Method: Five groups of 4- to 6-week-old SCID mice (8 animals each) were injected intravenously with 1×10^6 B104 B-cell lymphoma cells. […] Starting on day 7 after the injection, one group was administered CAMPATH® (alemtuzumab) weekly at 10 mg/kg; a second group was administered AMD3465 three times a week (Monday, Wednesday, Friday regimen) at 5.0 mg/kg; a third group was administered CAMPATH® (alemtuzumab) weekly at 10 mg/kg and AMD3465 three times a week (Monday, Wednesday, Friday regimen) at 1.0 mg/kg; and a fourth group was administered CAMPATH® (alemtuzumab) weekly at 10 mg/kg and AMD3465 three times a week (Monday, Wednesday, Friday regimen) at 5.0 mg/kg. […] The treatment was terminated on day 42.
Four groups of 4- to 6-week-old SCID mice (8 animals each) were injected intravenously with 1×10^6 B104 B-cell lymphoma cells. Starting on day 10 after the injection, one group was administered CAMPATH® (alemtuzumab) weekly at 10 mg/kg; a second group was administered AMD3465 daily (Monday-Friday regimen) at 5.0 mg/kg; and a third group was administered CAMPATH® (alemtuzumab) weekly at 10 mg/kg and AMD3465 daily (Monday-Friday regimen) at 5.0 mg/kg body weight.
In data set [3] the test system is stroma-cocultured Jurkat cells, primary CLL cells, subset of AML cells harboring Flt3 mutation. As to conditions: in vitro, stroma coculture; cited from earlier work.
The subject of data set [4] is AML. As to conditions: in combination with chemotherapy, compared to chemotherapy alone; cited from earlier work.
For data set [5], the system named is pre-B-ALL cells. As to conditions: in vitro; cited from earlier work.
The conditions of data set [6]: in vivo; cited from earlier work.

For the compound `c1ccc(CNCc2ccc(CN3CCCNCCNCCCNCC3)cc2)nc1` [AMD3465], the mean survival entry is listed as “did not have a significant effect” in data set [1] (5.0 mg/kg AMD3465 alone daily (M-F) from day 7); “significantly increased” in data set [1] (AMD3465 alone s.c. daily (M-F) at 0.1, 0.5 or 1.0 mg/kg from day 7, each concentration tested, vs control); “did not have a significant effect” in data set [2] (5.0 mg/kg AMD3465 alone daily (M-F) from day 10); “did not have a significant effect” in data set [2] (5.0 mg/kg AMD3465 alone three times a week (M, W, F) from day 7). The “dose dependence of the survival effect” value in data set [1] (AMD3465 alone 0.1, 0.5, 1.0 mg/kg, reverse dose-response) is recorded as “stronger effect observed at the lower concentrations”. Further, the chemotherapy-induced apoptosis result in data set [3] is “significantly enhanced”. Moreover, in data set [4], the overall survival entry is listed as “improved overall survival”. The tumor burden entry in data set [4] is recorded as “decreased tumor burden”.

As for `c1cc(CN2CCCNCCNCCCNCC2)ccc1CN1CCCNCCNCCCNCC1` [AMD3100], in data set [4], the overall survival result is “improved overall survival” and the tumor burden entry was “decreased tumor burden”. Also, in data set [5], the “SDF-1/CXCL12 induced chemotaxis of pre-B-ALL cells into bone marrow stroma layers” value is “blocked”; the “cytotoxic and antiproliferative effects of vincristine and dexamethasone” value was “enhanced”. For the same compound, the “white blood cell count” value in data set [6] was “increasing the white blood cell count”.
